Literature values, collected in patent US7422607B2, “Anti-calcification treatments for heart valves and vascular grafts” (priority 2004, dated 2008).

Details: buffer system described by Giradot (U.S. Pat. No. 4,976,733)

CCCCCCCC/C=C\CCCCCCC(N)C(=O)O (stereo not drawn) [alpha amino oleic acid]
Solubility in the buffer system: extremely low solubility
